{"source": "paper PMC12721191", "about": "“Oxidative hypoxia drives TGF-β1–induced fibrosis under normoxia” (Redox Biology, 2025)", "key": {"A549 [1]": {"system": "A549", "assay": "Western blot of HIF-1α, fibrosis and EMT markers in A549", "format": "cell-based, human", "conditions": "for HIF-1α and COL4A6 levels (Western blot): A549, TGF-β1 co-treatment"}, "A549 [2]": {"system": "A549", "assay": "Scratch migration assay", "format": "cell-based, human", "conditions": "CoCl2 or FG-4592 treatment"}, "HIF-1α–EGFP in A549": {"system": "HIF-1α–EGFP in A549", "assay": "pg-HIF-1α–EGFP fluorescence in transfected A549", "format": "cell-based, human", "conditions": "A549, co-treatment with TGF-β1", "protocol": "pg-HIF-1α–EGFP was introduced via jetOPTIMUS®; GFP fluorescence was quantified 48 h post-transfection.\nTransient transfection of A549 cells with pg-HIF-1α–EGFP was performed using jetOPTIMUS® according to the manufacturer’s protocol. Following 48 hr of transfection, the medium was replaced, and cells were treated with TGF-β1 at the specified concentration and duration before further analysis. Cell imaging was performed using an EVOS™ M7000 at 10×, 20×, or 40× magnification. GFP fluorescence intensity was measured using ImageJ. The mean fluorescence within the regions of interest (ROIs) was calculated after background subtraction, and values were normalized to the control condition"}, "Recombinant PHD2": {"molecular_target": "T1, Recombinant PHD2 (Homo sapiens, UniProt Q9GZT9)", "T1 construct": "purchased ActiveMotif, Japan 81065", "T1 sequence (Q9GZT9 whole entry)": "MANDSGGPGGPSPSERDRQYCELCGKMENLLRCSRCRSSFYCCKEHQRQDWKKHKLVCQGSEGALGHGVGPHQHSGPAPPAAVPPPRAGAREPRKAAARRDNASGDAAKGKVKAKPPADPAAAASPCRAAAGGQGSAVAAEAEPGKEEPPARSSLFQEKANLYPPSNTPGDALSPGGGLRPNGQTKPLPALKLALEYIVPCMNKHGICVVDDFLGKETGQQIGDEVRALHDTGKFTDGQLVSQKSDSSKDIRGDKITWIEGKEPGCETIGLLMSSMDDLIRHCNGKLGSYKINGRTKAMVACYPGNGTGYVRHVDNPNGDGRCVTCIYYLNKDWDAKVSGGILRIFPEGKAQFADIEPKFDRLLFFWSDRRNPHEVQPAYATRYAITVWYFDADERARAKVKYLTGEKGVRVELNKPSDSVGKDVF", "assay": "In vitro PHD2 enzymatic assay (HIF peptide hydroxylation, HPLC)", "format": "biochemical", "protocol": "To identify whether TGF-β1 directly affects PHD2 enzymatic activity, we performed an in vitro PHD2 assay using synthetic HIF-1α peptide as a substrate (Fig. 2h). […] To further investigate whether Fe^2+ oxidation impairs PHD2 activity, we introduced H2O2 into the reaction to promote Fe^2+ oxidation.\nA reaction mixture (30 µL total volume) containing 300 µM HIF peptide, 1 µM recombinant PHD2, 20 mM Tris-HCl (pH 7.5), 1 mM DTT, 300 µM ascorbic acid, 5 mM KCl, 1.5 mM MgCl2, 50 µM Fe(SO4)·6H2O, and 300 µM α-ketoglutarate was incubated at 30 °C for 2 hr. The reaction was terminated by adding an equal volume (30 µL) of DMSO. Product analysis was carried out on Waters 2998 HPLC system equipped with a photodiode array detector and an XBridge™ BEH C18 column (4.6 × 250 mm, 5 µm), detecting at 280 nm. A hydroxylated HIF peptide served as a reference standard."}, "[3]": {"system": "BLM-induced pulmonary fibrosis", "assay": "RT-qPCR of lung tissue in BLM-treated mice", "format": "in vivo, ICR mice", "conditions": "BLM 30 mg/kg; ACF-2 10 mg/kg i.p. every 2 days or NIDB 60 mg/kg/day", "protocol": "Total RNA (AccuPrep®) was reverse-transcribed and amplified with SYBR Green chemistry on a StepOnePlusTM system; relative expression was calculated by ΔΔCt. Male ICR mice received BLM (30 mg/kg, intratracheal). […] Total RNA was extracted from both cultured cells and mouse lung tissue using the AccuPrep® Universal RNA Extraction Kit. […] RT-qPCR was performed using iTaqTM Universal SYBR® Green Supermix on a StepOnePlusTM Real-Time PCR System. […] All animal studies were approved by the Institutional Animal Care and Use Committee of Jeju National University (Approval ID: 2024-0058) and conducted in compliance with institutional guidelines. Male ICR mice (6 weeks old, average body weight 27 g) were purchased from […] (South Korea) and housed under controlled temperature (22 ± 2 °C) and humidity (0.0 ± 15.0 %) on a 12 hr light-dark cycle with free access to food and water."}, "colon": {"system": "colon", "assay": "Colonic histopathology in the BLM mouse study", "format": "in vivo, ICR mice", "conditions": "BLM mice; ACF-2 10 mg/kg i.p. every 2 days or NIDB 60 mg/kg/day", "from_the_text": "Fixed left lung lobes were paraffin-embedded, sectioned (4 μm), and stained with H&E or MT. A blinded pathologist graded pulmonary fibrosis on the 1-8 Ashcroft scale; representative images illustrate typical lesions. Colon samples were processed by the swiss-roll method, stained with H&E, and scored for inflammation and erosion, which were combined into a composite histological score. All animal studies were approved by the Institutional Animal Care and Use Committee of Jeju National University (Approval ID: 2024-0058) and conducted in compliance with institutional guidelines. Male ICR mice (6 weeks old, average body weight 27 g) were purchased from […] (South Korea) and housed under controlled temperature (22 ± 2 °C) and humidity (0.0 ± 15.0 %) on a 12 hr light-dark cycle with free access to food and water. […] Colon tissue: Colons were harvested, flushed with 1xPBS, and prepared using the swiss-roll method before embedding in paraffin. Sections of 4 μm thickness were subjected to H&E staining as described above. Colonic injury was evaluated by two independent parameters: (i) inflammation score (0-3) and (ii) erosion score (0-3). A composite histological score was then calculated as the sum of inflammation and erosion scores for each sample."}, "[4]": {"system": "BLM-induced pulmonary fibrosis", "assay": "BLM-induced pulmonary fibrosis, Ashcroft scoring of lung sections", "format": "in vivo, ICR mice", "conditions": "BLM 30 mg/kg intratracheal; ACF-2 10 mg/kg i.p. every 2 days or NIDB 60 mg/kg/day in drinking water, 2 weeks; BLM-only 6.2", "protocol": "Male ICR mice received BLM (30 mg/kg, intratracheal). […] Fixed left lung lobes were paraffin-embedded, sectioned (4 μm), and stained with H&E or MT. A blinded pathologist graded pulmonary fibrosis on the 1-8 Ashcroft scale; representative images illustrate typical lesions. Colon samples were processed by the swiss-roll method, stained with H&E, and scored for inflammation and erosion, which were combined into a composite histological score. All animal studies were approved by the Institutional Animal Care and Use Committee of Jeju National University (Approval ID: 2024-0058) and conducted in compliance with institutional guidelines. Male ICR mice (6 weeks old, average body weight 27 g) were purchased from […] (South Korea) and housed under controlled temperature (22 ± 2 °C) and humidity (0.0 ± 15.0 %) on a 12 hr light-dark cycle with free access to food and water. […] Lung tissue: Left lung lobes were fixed in 4% paraformaldehyde for 24 h, dehydrated, and embedded in paraffin. Sections of 4 μm thickness were prepared, deparaffinized with xylene, and rehydrated in a graded ethanol series. H&E staining was performed using hematoxylin and eosin solutions, respectively. The severity of fibrosis was graded according to the Ashcroft scale (1-8), as evaluated by a pathologist blindly. Representative H&E images were chosen to illustrate the most characteristic pathology. […]"}}}
{"smiles": "Cc1nc(C(=O)NCC(=O)O)c(O)c2ccc(Oc3ccccc3)cc12", "note": "[FG-4592]", "values": [{"measurement": "fibrosis-associated proteins (fibronectin, α-SMA, COL3A1, COL4A6)", "setting": "A549 [1]; A549, ambient air, CoCl2 200 μM, FG-4592 50 μM", "value": "increased expression of fibrosis-associated proteins"}, {"measurement": "cell migration (wound healing)", "setting": "A549 [2]", "value": "significant increase in cell migration"}]}
{"smiles": "c1ccc2c(c1)[I+]c1ccccc1-2", "note": "[DPI, diphenyleneiodonium chloride, reference compound]", "values": [{"measurement": "HIF-1α and COL4A6 levels (Western blot)", "setting": "A549 [1]", "value": "markedly reduced HIF-1α and COL4A6 levels"}, {"measurement": "TGF-β1–induced HIF-1α–EGFP GFP fluorescence intensity", "setting": "HIF-1α–EGFP in A549", "value": "substantial drop in GFP intensity"}]}
{"smiles": "O.Oc1cc(O)c2c(c1)O[C@H](c1ccc(O)c(O)c1)[C@@H](O)C2", "note": "[Catechin]", "values": [{"measurement": "effect on PHD2 activity", "setting": "Recombinant PHD2; ambient air, comparable concentrations to ACF-2", "value": "failed to preserve or enhance PHD2 activity"}]}
{"smiles": "OO", "note": "[H2O2]", "values": [{"measurement": "effect on PHD2 activity (H2O2 added to the reaction)", "setting": "Recombinant PHD2; H2O2 introduced to promote Fe2+ oxidation", "value": "inhibited PHD2 activity in a dose-dependent manner"}]}
{"smiles": "COc1cc(C(C)=O)ccc1O", "note": "[apocynin]", "values": [{"measurement": "HIF-1α and COL4A6 levels (Western blot)", "setting": "A549 [1]", "value": "markedly reduced HIF-1α and COL4A6 levels"}]}
{"smiles": "COC(=O)c1ccc2c(c1)NC(=O)/C2=C(\\Nc1ccc(N(C)C(=O)CN2CCN(C)CC2)cc1)c1ccccc1", "note": "[NIDB, nintedanib, reference compound]", "values": [{"measurement": "TGF-β1 (Tgfb1) expression in lung (RT-qPCR)", "setting": "[3]", "value": "markedly reduced"}, {"measurement": "composite histological score of colon (inflammation + erosion)", "setting": "colon", "value": "significantly increased the composite histological score"}, {"measurement": "Average Ashcroft score", "setting": "[4]", "value": 3.8}]}
{"smiles": "CN(C)c1cccc(-c2c3c(=O)n(-c4ccccc4Cl)[nH]c3cc(=O)n2C)c1", "note": "[Setanaxib]", "values": [{"measurement": "HIF-1α and COL4A6 levels (Western blot)", "setting": "A549 [1]", "value": "markedly reduced HIF-1α and COL4A6 levels"}]}
